Results reported in ChEMBL document CHEMBL1133835, “A unique ring-expanded acyclic nucleoside analogue that inhibits both adenosine deaminase (ADA) and guanine deaminase (GDA; guanase): synthesis and enzyme inhibition studies of 4,6-diamino-8H-1-hydroxyethoxymethyl-8-iminoimidazo[4,5-e][1,3]diazepine” (Bioorg Med Chem Lett, 2001).

Target: T1, Adenosine deaminase (Bos taurus, UniProt P56658)
T1 sequence (P56658 whole entry): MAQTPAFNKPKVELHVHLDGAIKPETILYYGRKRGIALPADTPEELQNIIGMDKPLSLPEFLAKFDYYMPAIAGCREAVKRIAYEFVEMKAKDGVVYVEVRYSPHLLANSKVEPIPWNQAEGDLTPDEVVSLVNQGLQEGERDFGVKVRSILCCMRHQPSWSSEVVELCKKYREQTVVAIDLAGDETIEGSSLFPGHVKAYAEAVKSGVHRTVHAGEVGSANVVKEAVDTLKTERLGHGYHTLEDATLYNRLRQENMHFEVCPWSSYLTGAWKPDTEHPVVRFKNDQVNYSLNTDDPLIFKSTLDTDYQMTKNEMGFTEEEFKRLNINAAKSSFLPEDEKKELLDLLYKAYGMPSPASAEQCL
Assay: Binding affinity against Adenosine deaminase from calf intestinal mucosa was determined
Assay type: tissue-based

- Ki: 10 nM
Structure (SMILES): CCCCCC[C@@H]([C@@H](C)O)n1cnc2c(N)ncnc21 [EHNA]
